Key:
[1] = tested on: cocklebur; test: Test C pre-/postemergence herbicide test; assay type: in vivo, Xanthium strumarium; settings: for Plant response rating, Cocklebur: visual, 12 to 14 days
In short: (§1)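 Pre- and postemergence application, solvent/surfactant formulation; post at 1- to 4-leaf stage (2–18 cm). Greenhouse 12–14 d. Visual rating vs controls, 0 = no effect, 100 = complete control.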

[2] = tested on: morningglory; test: Test C pre-/postemergence herbicide test; assay type: in vivo, Ipomoea coccinea; parameters: key to Plant response rating, Morningglory: 0 = no effect, 100 = complete control
In short: as §1

[3] = tested on: eastern black nightshade; test: Test C pre-/postemergence herbicide test; assay type: in vivo, Solanum ptycanthum
In short: as §1

[4] = tested on: yellow nutsedge; test: Test C pre-/postemergence herbicide test; assay type: in vivo, Cyperus esculentus
In short: as §1

[5] = tested on: velvetleaf; test: Test A pre-/postemergence herbicide test; assay type: in vivo, Abutilon theophrasti
In short: (§2)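 Visual injury rating on a 0–100 scale (0 no effect, 100 complete control) versus untreated controls, about ten days after treatment in greenhouse. Pre: directed soil spray onto seeded sandy loam. Post: spray to runoff on plants 2–10 cm tall at one- to two-leaf stage.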

[6] = tested on: barnyardgrass; test: Test A pre-/postemergence herbicide test; assay type: in vivo, Echinochloa crus-galli
In short: as §2

[7] = tested on: Surinam grass; test: Test C pre-/postemergence herbicide test; assay type: in vivo, Urochloa decumbens
In short: as §1

[8] = tested on: giant foxtail; test: Test A pre-/postemergence herbicide test; assay type: in vivo, Setaria faberi
In short: as §2

[9] = tested on: johnsongrass; test: Test C pre-/postemergence herbicide test; assay type: in vivo, Sorghum halepense
In short: as §1

[10] = tested on: barnyardgrass; test: Test C flooded paddy test; assay type: in vivo, Echinochloa crus-galli
In short: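 Greenhouse test with a 12–14 day hold after application and visual comparison with controls. Emerged plants were 1- to 4-leaf stage (2–18 cm) when sprayed postemergence, and the paddy barnyardgrass was at 2 leaves under flooded conditions. 100 = complete control.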

[11] = tested on: giant foxtail; test: Test C pre-/postemergence herbicide test; assay type: in vivo, Setaria faberi; settings: for Plant response rating, Foxtail, Giant: visual, 12 to 14 days
In short: as §1

[12] = tested on: ducksalad; test: Test C flooded paddy test; assay type: in vivo, Heteranthera limosa
[13] = tested on: redroot pigweed; test: Test A pre-/postemergence herbicide test; assay type: in vivo, Amaranthus retroflexus
In short: as §2

[14] = 125 g ai/ha, scale 0 (no effect) to 100 (complete control), preemergence
[15] = 250 g ai/ha, scale 0 to 100 (0 no effect, 100 complete control), preemergence
[16] = Preemergence, 500 g ai/ha, scale 0 to 100, 0 no effect, 100 complete control
[17] = 125 g ai/ha, scale 0 (no effect) to 100 (complete control), visual, 12 to 14 days, preemergence
[18] = Postemergence, 500 g ai/ha, 0 to 100 scale, 0 no effect, 100 complete control
[19] = Postemergence, 2000 g ai/ha, 0 to 100 scale, 0 no effect, 100 complete control
[20] = Preemergence, 500 g ai/ha, visual rating, 0 to 100 scale (0 no effect, 100 complete control)
[21] = Preemergence, 2000 g ai/ha, visual rating, 0 to 100 scale (0 no effect, 100 complete control)
[22] = 62 g ai/ha, scale 0 to 100 (0 no effect, 100 complete control)
[23] = 125 g ai/ha, scale of 0 to 100, 0 is no effect, 100 is complete control
[24] = 250 g ai/ha, scale of 0 to 100, 0 is no effect, 100 is complete control
[25] = 500 g ai/ha, visual rating after 12 to 14 days, scale 0 to 100 (0 no effect, 100 complete control)

CC(=NO)c1cccc(NC(=O)c2cc(C(C)(C)C)nn2C)c1 [Compound 102]
Plant response rating (0 = no effect, 100 = complete control), Cocklebur ([1]; 62 g ai/ha, preemergence): 10
Plant response rating, Cocklebur [1, 14]: 20
Plant response rating, Cocklebur [1, 15]: 20
Cocklebur plant response rating [1, 16]: 70
Plant response rating (0 = no effect, 100 = complete control), Morningglory ([2]; 62 g ai/ha, preemergence): 30
Plant response rating, Morningglory [2, 17]: 70
Morningglory plant response rating [2, 16]: 80
Plant response rating (0 = no effect, 100 = complete control), Nightshade ([3]; 62 g ai/ha, preemergence): 90
Plant response rating, Nightshade [3, 17]: 100
Nightshade plant response rating [3, 16]: 100
Plant response rating (0 = no effect, 100 = complete control), Nutsedge, Yellow ([4]; 62 g ai/ha, preemergence): 0
Plant response rating, Nutsedge, Yellow [4, 17]: 0
Nutsedge, Yellow plant response rating [4, 16]: 30
Velvetleaf plant response rating [5, 18]: 10
Plant response rating, Velvetleaf [5, 19]: 20
Velvetleaf plant response rating [5, 20]: 30
Velvetleaf plant response rating [5, 21]: 60
Barnyardgrass plant response rating [6, 18]: 55
Plant response rating, Barnyardgrass [6, 19]: 75
Barnyardgrass plant response rating [6, 20]: 70
Barnyardgrass plant response rating [6, 21]: 85
Plant response rating (0 = no effect, 100 = complete control), Surinam Grass ([7]; 62 g ai/ha, preemergence): 0
Surinam Grass plant response rating [7, 16]: 50
Foxtail, Giant plant response rating [8, 18]: 45
Plant response rating, Foxtail, Giant [8, 19]: 65
Foxtail, Giant plant response rating [8, 20]: 60
Foxtail, Giant plant response rating [8, 21]: 85
Plant response rating (0 = no effect, 100 = complete control), Johnsongrass ([9]; 62 g ai/ha, preemergence): 50
Plant response rating, Johnsongrass [9, 17]: 80
Johnsongrass plant response rating [9, 16]: 100
Barnyardgrass plant response rating [10, 22]: 10
Barnyardgrass plant response rating [10, 23]: 50
Barnyardgrass plant response rating [10, 24]: 50
Plant response rating, Barnyardgrass [10, 25]: 70
Plant response rating (0 = no effect, 100 = complete control), Foxtail, Giant ([11]; 62 g ai/ha, preemergence): 10
Plant response rating, Foxtail, Giant [11, 14]: 50
Plant response rating, Foxtail, Giant [11, 15]: 80
Foxtail, Giant plant response rating [11, 16]: 80
Ducksalad plant response rating [12, 22]: 20
Ducksalad plant response rating [12, 23]: 80
Ducksalad plant response rating [12, 24]: 90
Plant response rating, Ducksalad [12, 25]: 90
Pigweed plant response rating [13, 18]: 95
Plant response rating, Pigweed [13, 19]: 100
Pigweed plant response rating [13, 20]: 80
Pigweed plant response rating [13, 21]: 90
